# Target: Induced myeloid leukemia cell differentiation protein Mcl-1 (Homo sapiens) (UniProt Q07820)
# Assay: Mcl-1 Noxa peptide disruption concentration-response – biochemical, TR-FRET, dose response (AID 1417)
# Settings: Mcl-1/Noxa peptide interaction, cell-free TR-FRET (terbium/rhodamine), 2 h; measured here: absolute IC50
# Sequence of Induced myeloid leukemia cell differentiation protein Mcl-1 (Homo sapiens) (Q07820 whole entry, looked up): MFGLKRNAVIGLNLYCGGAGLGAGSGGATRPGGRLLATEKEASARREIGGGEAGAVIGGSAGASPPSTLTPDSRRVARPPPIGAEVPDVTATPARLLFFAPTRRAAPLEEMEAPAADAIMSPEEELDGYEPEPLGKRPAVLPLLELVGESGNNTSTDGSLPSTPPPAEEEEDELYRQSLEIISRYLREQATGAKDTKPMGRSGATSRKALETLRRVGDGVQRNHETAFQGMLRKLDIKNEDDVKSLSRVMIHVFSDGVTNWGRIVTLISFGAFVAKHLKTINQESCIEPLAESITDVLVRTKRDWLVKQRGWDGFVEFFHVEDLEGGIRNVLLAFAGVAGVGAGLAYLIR
row,Compound,IC50 [µM]
1,O=C(/C=C/c1ccccc1)c1ccc(NC2=NCCCS2)cc1,6.52
2,O=C(N/N=C/c1ccc(O)c(O)c1)c1ccc(CSc2cccc3cccnc23)cc1,3.09
3,O=C(c1ccccc1)c1ccc2nc(-c3ccco3)c(-c3ccco3)nc2c1,4.34
4,CC(C)(C)C1CCc2c(C(=O)NNC(=O)CCC(=O)O)csc2C1 (stereo unspecified),> 54
5,O=C1OC(c2cccs2)=N/C1=C/c1ccc(-c2cccc(C(=O)O)c2)o1,> 54
6,CC1=C(C#N)C(=O)NC(=O)/C1=C\c1ccc(-c2cc(C)c(C)cc2[N+](=O)[O-])o1,< 0.4
7,CC(=O)Oc1ccc(NC(=O)CSc2ccccc2)cc1,> 54
8,Cc1cc(=O)n2[nH]c(-c3ccsc3-n3c(C)ccc3C)cc2n1,2.89
9,N=c1c(C(=O)NCc2ccc(F)cc2)cc2c(=O)n3ccccc3nc2n1Cc1cccnc1,3.21
10,COc1ccc(/C=C2\C(=O)NC(=S)N2C(=O)c2ccc(C)cc2)cc1,> 54
11,CC1CC1C(=O)OCC(=O)Nc1ccc2[nH]c(=O)[nH]c2c1 (stereo unspecified),4.38
12,COc1ccc(C(c2c(O)ccc3ccccc23)N2CCOCC2)c(OC)c1 (stereo unspecified),< 0.4
13,NC(=O)c1c(NC(=O)CSc2nnc(-c3ccco3)n2-c2ccccc2)sc2c1CCC2,5.75
14,Oc1ccc(N=Nc2cccc(Cl)c2)cc1C=Nc1ccc(N2CCOCC2)cc1,> 54
15,Cc1cc(/C=N/n2c(COc3ccccc3)nc3ccccc3c2=O)c(O)c([N+](=O)[O-])c1,1.56
16,COc1cc(/C=C2/SC(=S)NC2=O)ccc1OS(=O)(=O)c1ccc(C)cc1,3.26
17,O=C(NN1C(=O)/C(=C/C=C/c2ccco2)SC1=S)c1ccncc1,2.23
18,COc1cc(/C=C2/SC(=O)NC2=O)ccc1Oc1ccc([N+](=O)[O-])cc1[N+](=O)[O-],4.2
19,Cc1c2c(=O)n(-c3nc4ccccc4s3)nc-2cc(O)n1Cc1ccccc1,5.62
20,Nc1ccc(Cc2ccc(N)c(O)c2)cc1O,< 0.4
21,CC(=O)c1ccc(NC(=O)CC2Nc3cccc4cccc(c34)NC2=O)cc1 (stereo unspecified),3.62
22,COc1cc2cc3c(N)c(C(=O)Nc4sc(C)c(C)c4C#N)sc3nc2cc1OC,1.07

row,Compound,IC50 [µM]
1,CC1=Nc2cccc3cccc(c23)N1,2.63
2,CN(C)c1ccc(NS(=O)(=O)c2cccc(Cl)c2)cc1,> 54
3,CCCOc1ccc(Cc2nn3c(=O)/c(=C/c4ccco4)sc3nc2=O)cc1,> 54
4,Cc1cc(C(=O)N/N=C/c2ccc(O)c([N+](=O)[O-])c2)c(C)n1-c1ccc(F)cc1,2.33
5,N#CC(C#N)=NNc1ccc(S(N)(=O)=O)cc1,1.91
6,CC(/C=C1\SC(=S)N(c2ccc(C(=O)O)cc2)C1=O)=C\c1ccccc1,2.81
7,CN(C)c1ccc(NC(=O)c2cccc(N3C(=O)C4C5C=CC(C5)C4C3=O)c2)cc1 (stereo unspecified),> 54
8,O=C(COC(=O)c1c2c(nc3ccccc13)/C(=C/c1ccco1)CC2)NC1CCCC1,2.35
9,COc1ccc(C(=O)CSc2nnc(-c3ccco3)c(-c3ccco3)n2)cc1,7.95
10,O=c1c2ccccc2nc(-c2ccco2)n1-c1cccnc1,> 54
11,O=C1CC(c2ccc(O)c(O)c2)Oc2c1ccc(O)c2O (stereo unspecified),2.46
12,Oc1c(Cl)cc(Cl)cc1/C=C/c1ccc2cccc(O)c2n1,> 54
13,CCN(c1ccc(NC(=O)COC(=O)c2ccc(C)c(S(=O)(=O)N3CCOCC3)c2)cc1)C(C)C,> 54
14,Fc1cc(F)c2nc(Nc3nc4cc5c(cc4s3)OCO5)sc2c1,< 0.4
15,CC12CN3CC(C)(CN(C1)C3c1ccccc1Cl)C2O (stereo unspecified),> 54
16,COc1ccc(/C=C2/C(=O)NC(=S)N(C3CC3)C2=O)cc1CN1C(=O)c2ccccc2C1=O,3.11
17,COc1cccc(/C=N/Nc2ncnc3c2[nH]c2ccc(C)cc23)c1OC,4.21
18,CCS(=O)(=O)N1CCN(C(C)CCc2ccccc2)CC1 (stereo unspecified),> 54
19,CCOc1cc(/C=N/Nc2nc(-c3cccs3)c(NC(C)=O)s2)ccc1O,< 0.4
20,COc1ccc(/C=C2\SC(=O)N(CCC(=O)Nc3ccc(S(=O)(=O)Nc4nccs4)cc3)C2=O)cc1,< 0.4
21,CS(=O)(=O)c1ccc2c(c1)sc1nc(=O)c(/C=C3/C=CC(=O)C(O)=C3)c(N)n12,< 0.4
22,CC(=O)N1C(=O)/C(=C2\SC(=S)N(NC(=O)c3ccc(O)cc3)C2=O)c2ccccc21,1.55

row,Compound,IC50 [µM]
1,O=C(Nc1ccc(N2CCCC2)cc1)c1ccc(Br)o1,1.06
2,COc1cc(OC)c2c(O)c3c(c(-c4c5c(c(O)c6c(OC)cc(OC)cc46)CO[C@@H](C)[C@H]5O)c2c1)[C@H](O)[C@H](C)OC3,> 54
3,Cc1ccc(-c2cc(C(=O)O)c3cc(Br)ccc3n2)o1,4.68
4,C=C(C)C(=O)Nc1cccc(C2=NOC3(C2)C[C@@H](C(N)=O)N(C(=O)c2ccc(Cl)cc2)C3)c1 (stereo partly specified),< 0.4
5,CCOC(=O)C1CCCN(c2ccc(NC(=O)c3snc4c(=O)[nH]c(C)nc34)cc2)C1 (stereo unspecified),6.54
6,O=C(Cn1nc(C(=O)O)c2ccccc2c1=O)Nc1ccc2c(c1)C(=O)c1ccccc1C2=O,4.62
7,COc1ccc2nc(NC(=O)Nc3cccc4ccccc34)sc2c1,> 54
8,Cc1ccc(-c2nn(-c3ccccc3)cc2/C=C2\SC(=S)N(CC(=O)O)C2=O)cc1,4.63
9,Oc1ccc(/C=N/Nc2ccnc3cc(Cl)ccc23)cc1O,1.99
10,O=C(O)c1ccc(NC2=C/C(=N/S(=O)(=O)c3ccccc3)c3ccccc3C2=O)cc1,< 0.4
11,CN(C)c1ccc(NC(=O)CCCc2ccccc2)cc1,> 54
12,COc1cc(NCCC(=O)c2cccs2)c(OC)cc1Cl,> 54
13,COc1ccc(C(=O)c2sc3nc(-c4ccc(OC)cc4)ccc3c2N)cc1,> 54
14,CCOC(=O)c1c(-c2ccc(C)cc2)csc1NC(=O)/C(C#N)=C/c1ccc(O)c(OC)c1,< 0.4
15,CSc1nnc(-c2ccco2)c(-c2ccco2)n1,13.2
16,COc1ccc(/C=C2/SC(=O)N(CCC(=O)Nc3ccc(S(=O)(=O)Nc4nccs4)cc3)C2=O)cc1,3.81
17,Cc1c(Cc2ccccc2)c(NCCN(C)C)n2c(nc3ccccc32)c1C#N,1.91
18,Cc1ccc(/C=C/C(=O)Nc2ccc(N(C)C)cc2)o1,< 0.4
19,Cc1c(O)cc2c(c1O)C(=O)CC(c1ccc(O)cc1)O2 (stereo unspecified),2.84
20,N=C1CCC(=N)c2c1c(O)c1ccccc1c2O,> 54
21,CN(C)c1ccc(/C=C/c2ccc3c4ccccc4ccc3[n+]2-c2ccccc2)cc1,> 54
22,COc1ccc(CN2C(=O)/C(=C/c3ccc(-c4ccc(Cl)c(C(=O)O)c4)o3)SC2=S)cc1,1.56

row,Compound,IC50 [µM]
1,COc1ccc(-c2ccc3c(n2)sc2c(=O)[nH]c(=O)[nH]c23)cc1OC,< 0.4
2,COc1ccc(N2CCC(CNC(=O)Nc3cccc(OC)c3)C2)cc1 (stereo unspecified),> 54
3,Nc1ccc2nc(-c3ccc(Cl)cc3)[nH]c2c1,30.5
4,Cc1cccc(C)c1NC(=O)CSc1nnc(-c2ccco2)c(-c2ccco2)n1,1.93
5,O=Cc1[nH]c2ccccc2c1N(C(=O)CCl)c1ccc([N+](=O)[O-])cc1,> 54
6,CCOC(=O)c1c(C)oc2c1c(C(c1cccnc1)N1CCOCC1)c(O)c1ccccc12 (stereo unspecified),< 0.4
7,Nc1ccc(N2CCCCC2)cc1N1CCCCC1,> 54
8,COC(=O)c1ccc(=O)c2nc3/c(=C/O)c(O)cc(=O)c3[nH]c12,< 0.4
9,Cc1ccc2c(c1)NC(=O)c1cccnc1N2,> 54
10,O=C(C1=C[C@@H](c2ccc(C(F)(F)F)cc2)C[C@@H](OCc2ccc(CO)cc2)O1)N1CCN(Cc2ccccc2)CC1,> 54
11,CCOC(=O)NNc1ccc2nonc2c1[N+](=O)[O-],< 0.4
12,COC(=O)c1ccc2nc(Nc3nc4c(F)cc(F)cc4s3)sc2c1,< 0.4
13,O=C1NC(=O)/C(=C\c2ccc(O)cc2O)S1,< 0.4
14,C=CCOc1c(OC)cc(/C=N/Nc2cccc(C(=O)O)c2)c(Br)c1Br,> 54
15,Cc1nc(COC(=O)c2cc(O)c3ccccc3c2O)cs1,< 0.4
16,O=C(O)c1ccc(N/N=C/c2ccc(-c3cc(Cl)ccc3Cl)o2)cc1,1.84
17,CN(C)S(=O)(=O)c1cccc(NC(=S)N/N=C/c2ccc(O)c(O)c2O)c1,< 0.4
18,NC(=S)n1[nH]c(-c2ccc([N+](=O)[O-])cc2)c(N=Nc2cccc(Cl)c2)c1=O,1.48
19,CC1=C(C#N)c2nc(N)c(C#N)c(C)c2/C1=C\c1ccc(-c2ccccc2C(=O)O)o1,2.98
20,CC[C@H](C)NC(=O)c1ccc(Cn2c(=S)[nH]c3c([nH]c4ccc(OC)cc43)c2=O)cc1,6.17
21,O=C(O)c1cccc(NC2=C(Cl)C(=O)c3ccccc3C2=O)c1,3.79
22,O=C1CSC(=S)N1/N=C/c1ccc(O)c([N+](=O)[O-])c1,1.39

row,Compound,IC50 [µM]
1,c1ccc(-c2ccc(-c3n(-c4ccccn4)c4ccccc4[n+]3-c3ccccn3)cc2)cc1,34.6
2,COc1cc(/C=N/NC(=O)c2ccc(CN3C(=O)c4cccc5cccc3c45)cc2)cc(OC)c1O,3.43
3,O=C1NC(=S)S/C1=C\c1ccc(SCc2ccco2)o1,< 0.4
4,N=C1/C(=C\c2ccc(-c3ccc(C(=O)O)cc3)o2)C(=O)N=C2SC=C(c3ccccc3)N12,< 0.4
5,Cc1cc2ncn(/N=C/c3ccc([N+](=O)[O-])s3)c2cc1C,5.32
6,Cc1cc(C)n2c(SC/C(O)=C(\C#N)c3nc4ccccc4[nH]3)nnc2n1,< 0.4
7,O=C(Nc1ccc(S(=O)(=O)Nc2nccs2)cc1)/C(=C/c1ccccc1Cl)NC(=O)c1ccccc1,2.93
8,O=C1CCCC2=C1C(c1ccc(O)c(O)c1)c1c(ccc3ncccc13)N2 (stereo unspecified),< 0.4
9,COc1ccc(-n2c(N)c(-c3nc4ccccc4n3C)sc2=S)cc1,> 54
10,COc1ccc(C(=O)N=c2c(C#N)cc3c(=O)n4cccc(C)c4nc3n2Cc2ccco2)cc1,13.8
11,CCCCCCCCCCCCCCCC[n+]1cccc2ccccc21,5.34
12,CC1CCCCC12NC(=O)N(CC(=O)Nc1sc3c(c1C(N)=O)CCC3)C2=O (stereo unspecified),3.97
13,Oc1c(Cl)cc(Cl)c(Cl)c1Cc1c(O)c(Cl)cc(Cl)c1Cl,< 0.4
14,CNc1ccc(Br)cc(C(=O)/C=C/c2cc(OC)ccc2OC)c1=O,1.73
15,O=S(=O)(c1ccc2nc(-c3ccco3)c(-c3ccco3)nc2c1)N1CCOCC1,8.41
16,O=C(CSc1ccsc1[N+](=O)[O-])N1CCN(c2ccc(Cl)cc2)CC1,5.22
17,COC(=O)c1cc(O)cc(OC)c1Oc1cc(C)cc(O)c1C(=O)O,> 54
18,CCN(c1ccc(NC(=O)COC(=O)c2cc3ccccc3oc2=O)cc1)C(C)C,> 54

# Source: PubChem BioAssay AID1417 (Emory University Molecular Libraries Screening Center, 2008)
